# Patent publication US20110071220A1, “Use of Tetronic Acid Derivatives for Fighting Insects and Red Spider Mites by Watering on the Ground, Droplet Application or Immersion Application” (Bayer CropScience AG, priority 2008, published 2011)
# Key:
# Type in all cases: in vivo
# [1] = tested on: greenhouse red spider mite (Tetranychus urticae); experiment: Tetranychus urticae test, soil application in rock wool (eggplants); conditions: 10 mg of ai/plant
# Description: To produce a suitable solution, the product is mixed with water and diluted with water to the desired concentration. The desired amount of additive is added to the mixtures. Eggplants (Solanum melongena) are cultivated in rock wool. At the 4-leaf stage, the product solution in question is applied to the rock wool. The stated concentration refers to the amount of active compound per plant.
# At the desired point in time, the plants are infested with a mixed population of the greenhouse red spider mite (Tetranychus urticae).
# After the desired period of time, the effect in % is determined. 100% means that all spider mites have been killed; 0% means that none of the spider mites have been killed.
# [2] = tested on: whiteflies (Bemisia tabaci); experiment: Bemisia tabaci test on tomatoes, drench application in rock wool; conditions: 5 mg of ai/plant; tomato plants in rock wool; days between application and infestation −11; mortality determined 25 days after infestation
# Description: (§1) To produce a suitable solution, the product is mixed with water and diluted with water to the desired concentration. The desired amount of additive is added to the mixtures.
# Tomato plants (Solanum lycopersicum) are cultivated in rock wool and infested with whiteflies (Bemisia tabaci). At the 2-leaf stage, the product solution in question is applied to the rock wool. The stated concentration refers to the amount of active compound per plant.
# (§2) After the desired period of time, the effect in % is determined. 100% means that all the whiteflies have been killed; 0% means that none of the whiteflies have been killed.
# [3] = tested on: whiteflies (Bemisia tabaci); experiment: Bemisia tabaci test on cucumbers, drench application in rock wool; conditions: 20 mg of ai/plant, days between application and infestation −11, mortality determined 18 days after infestation
# Description: as §1
# Cucumbers (Cucumis sativa) are cultivated in rock wool and infested with whiteflies (Bemisia tabaci). At the 2-leaf stage, the product solution in question is applied to the rock wool. The stated concentration refers to the amount of active compound per plant.
# as §2
smiles,measurement,setting,value
"Cc1cc(C)c(C2=C(OC(=O)CC(C)(C)C)C3(CCCC3)OC2=O)c(C)c1 [spiromesifen (II-2), spiromesifen]",Mortality,"[1]; days between application and infestation 14, mortality determined 14 days after infestation",20%
same,Mortality,"[1]; days between application and infestation −1, mortality determined 7 days after infestation",30%
same,Mortality,"[1]; days between application and infestation −1, mortality determined 14 days after infestation",10%
same,Mortality,[2],80%
same,Mortality,[3],0%
